{"source": "patent US9358247B2", "about": "“Methods and compositions for promoting activity of anti-cancer therapies” (Oncology Research International Limited, priority 2006, dated 2016)", "key": {"LNCap cell line": {"system": "LNCap cell line", "assay": "Cancer cell growth inhibition, SRB dye assay (single agents and 50:50 IC50 mixtures)", "format": "cell-based, human", "experimental": "Cancer cells were seeded the day before application of drug in triplicate or quadruplicate in 96-well plates, allowed to grow in the presence of drug for 6 days before cell growth relative to untreated control wells was determined with a dye assay. Cells were seeded in triplicate or quadruplicate at 3-4,000 per microtitre well in 90 μl of RPMI culture medium/10% foetal calf serum/penicillin, streptomycin mix, treated with 10 μl of drug (prepared in a dilution plate at 10× concentration required), and allowed to grow until the controls were nearly confluent (6 days). SRB: Plates were washed with PBS, fixed with methylated spirits, washed with tap water and stained with 50 μL/well of SRB solution (sulforhodamine, 0.4% in 1% acetic acid), followed by washing with tap water and 1% acetic acid, solubilisation in Tris and absorbance read at 564 nm in an ELISA reader. Data was collected using ELISA plate reader software—SOFTmax PRO3.1.2, then imported into EXCEL. The mean and SD of replicates were calculated as a % of control, after subtraction of the blank value (wells with no cells). A graph was plotted of % control vs dose of agent and IC50 (half maximal inhibitory concentration) values determined. […] The cells were allowed to grow until the controls were nearly confluent after 5-6 days. Plates were then washed with PBS, fixed in ethanol and stained with 50 μL/well of SRB solution (sulforhodamine, 0.4% in 1% acetic acid), followed by washing with 1% acetic acid and solubilisation in Tris. The absorbance was read at 564 nm using an ELISA reader. […] Cambridge University Press). […] The inhibitory data from each mixture was used to determine an IC50 of IC50 value, where the concentrations used were the Multiplying Factor values. In order to determine the actual IC50 contribution of each component in the two-component mixture, the IC50 of IC50 value was multiplied by the IC50 of the individual component. This can then be used to determine the reduction in IC50 contribution (ie, reduction in dose) of the chemotherapeutic agent due to the presence of the steroid saponin in the mixture. A simpler way of determining the reduction in dose is to use the following simple formula: […]"}, "HT29 human cells": {"system": "HT29 human cells", "assay": "In vivo tumour volume, HT29 cells subcutaneously introduced into mice, 5-fluorouracil and deltonin", "parameters": "species or system Balb/c nude female mice", "source_text": "5-Fluorouracil (5FU) is the principal chemotherapeutic drug used in treating colon cancer; it is most commonly co-administered with other chemotherapeutic agents. This study compared the co-administration of 5-fluoruracil and deltonin, with administration of mono-administration of both 5-fluorourcil and deltonin.\n72 female Balb/c nude female mice were microchipped, weighed and randomised based on body weight into 8 groups with 9 mice per group. […]\nHT29 human […] carcinoma cells were cultured in RPMI1640 cell culture medium, which was supplemented with 10% FBS and penicillin-streptomycin (50 IU/mL final concentration). The cells were harvested by trypsinisation, washed twice in HBSS and counted. The cells were then resuspended in HBSS and adjusted to a final volume containing 2×10^7 cells/mL. For inoculation, the needle was introduced through the skin into the subcutaneous space just below the right shoulder, where 100 μL of cells (2×10^6) were discharged.\nWhen the tumour volumes had reached an average of greater than 200 mm^3, treatment was started (Day 0). Tumour volumes were measured 3-times weekly, and determined according to the formula: V(mm^3)=length×diameter^2×π/6\nTreatment was continued for 17 days. The mean tumour volumes for each dosage regime are given in Table 24 and are presented graphically in FIG. 1: […]"}, "K562 cell line": {"system": "K562 cell line", "assay": "Cancer cell growth inhibition, SRB dye assay (single agents and 50:50 IC50 mixtures)", "format": "cell-based, human", "conditions": "Homo sapiens, 144 h, Example 6, value used to make up 50:50 IC50 mixtures, read-out: IC50 values used in assay", "experimental": "Cancer cells were seeded the day before application of drug in triplicate or quadruplicate in 96-well plates, allowed to grow in the presence of drug for 6 days before cell growth relative to untreated control wells was determined with a dye assay.\nCells were seeded in triplicate or quadruplicate at 3-4,000 per microtitre well in 90 μl of RPMI culture medium/10% foetal calf serum/penicillin, streptomycin mix, treated with 10 μl of drug (prepared in a dilution plate at 10× concentration required), and allowed to grow until the controls were nearly confluent (6 days).\nSRB: Plates were washed with PBS, fixed with methylated spirits, washed with tap water and stained with 50 μL/well of SRB solution (sulforhodamine, 0.4% in 1% acetic acid), followed by washing with tap water and 1% acetic acid, solubilisation in Tris and absorbance read at 564 nm in an ELISA reader.\nData was collected using ELISA plate reader software—SOFTmax PRO3.1.2, then imported into EXCEL. The mean and SD of replicates were calculated as a % of control, after subtraction of the blank value (wells with no cells). A graph was plotted of % control vs dose of agent and IC50 (half maximal inhibitory concentration) values determined.\nTumour cells were seeded in duplicate in 96-well plates at 2-5,000 per microtitre well containing RPMI culture medium/10% foetal calf serum. The cells were allowed to grow until the controls were nearly confluent after 5-6 days. Plates were then washed with PBS, fixed in ethanol and stained with 50 μL/well of SRB solution (sulforhodamine, 0.4% in 1% acetic acid), followed by washing with 1% acetic acid and solubilisation in Tris. The absorbance was read at 564 nm using an ELISA reader.\nThe IC50, or concentration required to inhibit cell growth by 50%, was determined from the percentage inhibition versus concentration data using the probit calculation methods of Finney (Finney D J (1971). Probit Analysis. 3rd Edition. Cambridge University Press).\nThe inhibitory data from each mixture was used to determine an IC50 of IC50 value, where the concentrations used were the Multiplying Factor values. In order to determine the actual IC50 contribution of each component in the two-component mixture, the IC50 of IC50 value was multiplied by the IC50 of the individual component. This can then be used to determine the reduction in IC50 contribution (ie, reduction in dose) of the chemotherapeutic agent due to the presence of the steroid saponin in the mixture. A simpler way of determining the reduction in dose is to use the following simple formula: […]\nThe cell seeding and ELISA plate methodology of Example 2 were used for determining inhibition of the K562 cell line."}}}
{"smiles": "C[C@@H]1CC[C@@]2(OC1)O[C@H]1C[C@H]3[C@@H]4CC=C5C[C@@H](O[C@@H]6O[C@H](CO)[C@@H](O[C@@H]7O[C@H](CO)[C@@H](O)[C@H](O)[C@H]7O)[C@H](O)[C@H]6O[C@@H]6O[C@@H](C)[C@H](O)[C@@H](O)[C@H]6O)CC[C@]5(C)[C@H]4CC[C@]3(C)[C@H]1[C@@H]2C", "note": "[Deltonin, diosgenin Rha2, [Glc4], Glc]", "values": [{"measurement": "Vincristine Dose Reduction", "setting": "LNCap cell line; 50:50 IC50 mixture vs vincristine alone, Example 3", "value": "consistent reduction in dosage"}, {"measurement": "IC50", "setting": "LNCap cell line; Homo sapiens, 144 h, Example 3, value used to make up 50:50 IC50 mixtures, read-out: IC50 values used in assay", "value": 1, "unit": "µM"}, {"measurement": "Mean tumour volume", "setting": "HT29 human cells; Deltonin 1.65 mg/kg daily, Day 0", "value": 236, "unit": "mm^3"}, {"measurement": "Mean tumour volume", "setting": "HT29 human cells; Deltonin 1.65 mg/kg daily, Day 2", "value": 260, "unit": "mm^3"}, {"measurement": "Mean tumour volume", "setting": "HT29 human cells; Deltonin 1.65 mg/kg daily, Day 4", "value": 299, "unit": "mm^3"}, {"measurement": "Mean tumour volume", "setting": "HT29 human cells; Deltonin 1.65 mg/kg daily, Day 7", "value": 294, "unit": "mm^3"}, {"measurement": "Mean tumour volume", "setting": "HT29 human cells; Deltonin 1.65 mg/kg daily, Day 9", "value": 350, "unit": "mm^3"}, {"measurement": "Mean tumour volume", "setting": "HT29 human cells; Deltonin 1.65 mg/kg daily, Day 11", "value": 462, "unit": "mm^3"}, {"measurement": "Mean tumour volume", "setting": "HT29 human cells; Deltonin 1.65 mg/kg daily, Day 14", "value": 594, "unit": "mm^3"}, {"measurement": "Mean tumour volume", "setting": "HT29 human cells; Deltonin 1.65 mg/kg daily, Day 16", "value": 644, "unit": "mm^3"}, {"measurement": "Mean tumour volume", "setting": "HT29 human cells; Deltonin 1.65 mg/kg daily, Day 18", "value": 776, "unit": "mm^3"}, {"measurement": "Mean tumour volume", "setting": "HT29 human cells; Deltonin 3.3 mg/kg daily, Day 0", "value": 236, "unit": "mm^3"}, {"measurement": "Mean tumour volume", "setting": "HT29 human cells; Deltonin 3.3 mg/kg daily, Day 2", "value": 242, "unit": "mm^3"}, {"measurement": "Mean tumour volume", "setting": "HT29 human cells; Deltonin 3.3 mg/kg daily, Day 4", "value": 271, "unit": "mm^3"}, {"measurement": "Mean tumour volume", "setting": "HT29 human cells; Deltonin 3.3 mg/kg daily, Day 7", "value": 331, "unit": "mm^3"}, {"measurement": "Mean tumour volume", "setting": "HT29 human cells; Deltonin 3.3 mg/kg daily, Day 9", "value": 413, "unit": "mm^3"}, {"measurement": "Mean tumour volume", "setting": "HT29 human cells; Deltonin 3.3 mg/kg daily, Day 11", "value": 489, "unit": "mm^3"}, {"measurement": "Mean tumour volume", "setting": "HT29 human cells; Deltonin 3.3 mg/kg daily, Day 14", "value": 558, "unit": "mm^3"}, {"measurement": "Mean tumour volume", "setting": "HT29 human cells; Deltonin 3.3 mg/kg daily, Day 16", "value": 742, "unit": "mm^3"}, {"measurement": "Mean tumour volume", "setting": "HT29 human cells; Deltonin 3.3 mg/kg daily, Day 18", "value": 842, "unit": "mm^3"}, {"measurement": "Mean tumour volume", "setting": "HT29 human cells; Deltonin 6.6 mg/kg daily, Day 0", "value": 235, "unit": "mm^3"}, {"measurement": "Mean tumour volume", "setting": "HT29 human cells; Deltonin 6.6 mg/kg daily, Day 2", "value": 233, "unit": "mm^3"}, {"measurement": "Mean tumour volume", "setting": "HT29 human cells; Deltonin 6.6 mg/kg daily, Day 4", "value": 265, "unit": "mm^3"}, {"measurement": "Mean tumour volume", "setting": "HT29 human cells; Deltonin 6.6 mg/kg daily, Day 7", "value": 310, "unit": "mm^3"}, {"measurement": "Mean tumour volume", "setting": "HT29 human cells; Deltonin 6.6 mg/kg daily, Day 9", "value": 399, "unit": "mm^3"}, {"measurement": "Mean tumour volume", "setting": "HT29 human cells; Deltonin 6.6 mg/kg daily, Day 11", "value": 490, "unit": "mm^3"}, {"measurement": "Mean tumour volume", "setting": "HT29 human cells; Deltonin 6.6 mg/kg daily, Day 14", "value": 588, "unit": "mm^3"}, {"measurement": "Mean tumour volume", "setting": "HT29 human cells; Deltonin 6.6 mg/kg daily, Day 16", "value": 671, "unit": "mm^3"}, {"measurement": "Mean tumour volume", "setting": "HT29 human cells; Deltonin 6.6 mg/kg daily, Day 18", "value": 692, "unit": "mm^3"}, {"measurement": "IC50", "setting": "K562 cell line", "value": 1, "unit": "µM"}]}
